Measured values: ChEMBL document CHEMBL5614390, “Novel EGFR inhibitors against resistant L858R/T790M/C797S mutant for intervention of non-small cell lung cancer” (Eur J Med Chem, 2024)
pIC50: −log10 of the molar value. Activity calls are given as the source filed them. The calls are words filed in the database; no cut-off is given here.

Tests used:
[1] = Metabolic stability in mouse liver microsomes assessed as half-life at 10 uM preincubated for 5 mins followed by NADPH addition and measured upto 60 mins by HPLC analysis; type: ADME, Microsome; settings: time < 65 min
[2] = Metabolic stability in human liver microsomes assessed as intrinsic clearance at 10 uM preincubated for 5 mins followed by NADPH addition and measured upto 60 mins by HPLC analysis; type: ADME, Microsome; settings: time < 65 min, read-out: CLH
[3] = Metabolic stability in dog liver microsomes assessed as half-life at 10 uM preincubated for 5 mins followed by NADPH addition and measured upto 60 mins by HPLC analysis; type: ADME, Canis lupus familiaris, Microsome; settings: time < 65 min
PC-9 [4] = experiment: Antitumor activity against human PC-9 cells expressing EGFR L858R/T790M/C797S mutant xenografted in BALB/c nude mouse assessed as tumor growth inhibition at 20 mg/kg, po administered for 18 days relative to control; type: functional; settings: PC-9, 432 h, time 18 day, read-out: TGI
PC-9 [5] = experiment: Antitumor activity against human PC-9 cells expressing EGFR L858R/T790M/C797S mutant xenografted in BALB/c nude mouse assessed as reduction in tumor weight at 10 to 40 mg/kg, po administered for 18 days; type: functional, organism-based; settings: dose 10-40 mg/kg, time 18.0 day
PC-9 [6] = experiment: Antitumor activity against human PC-9 cells expressing EGFR L858R/T790M/C797S mutant xenografted in BALB/c nude mouse assessed as average tumor weight at 40 mg/kg, po administered for 18 days (reference value: 0.83 g); type: functional; settings: time 18 day
PC-9 [7] = experiment: Induction of cell cycle arrest in human PC-9 cells expressing EGFR L858R/T790M/C797S mutant assessed as accumulation of cells at G0/G1 phase at low dose incubated for 24 hrs by PI staining based flow cytometric analysis; type: functional
PC-9 [8] = experiment: Induction of apoptosis in human PC-9 cells expressing EGFR Del19/T790M/C797S mutant assessed as viable cells at 0.5 uM incubated for 48 hrs by Annexin V-FITC/PI staining based flow cytometric analysis (reference value: 99.8 %); type: functional; settings: read-out: Activity
PC-9 [9] = experiment: Induction of cell cycle arrest in human PC-9 cells expressing EGFR L858R/T790M/C797S mutant assessed as accumulation of cells at G2/M phase at 1 uM incubated for 24 hrs by PI staining based flow cytometric analysis; type: functional
PC-9 [10] = experiment: Induction of apoptosis in human PC-9 cells expressing EGFR L858R/T790M/C797S mutant assessed as necrotic cells at 0.1 uM incubated for 48 hrs by Annexin V-FITC/PI staining based flow cytometric analysis (reference value: 0.540 %); type: functional
PC-9 [11] = experiment: Induction of apoptosis in human PC-9 cells expressing EGFR L858R/T790M/C797S mutant assessed as viable cells at 0.5 uM incubated for 48 hrs by Annexin V-FITC/PI staining based flow cytometric analysis (reference value: 98.9 %); type: functional; settings: read-out: Activity
PC-9 [12] = experiment: Induction of apoptosis in human PC-9 cells expressing EGFR L858R/T790M/C797S mutant assessed as late apoptotic cells at 0.1 uM incubated for 48 hrs by Annexin V-FITC/PI staining based flow cytometric analysis (reference value: 0.360 %); type: functional
PC-9 [13] = experiment: Induction of cell cycle arrest in human PC-9 cells expressing EGFR Del19/T790M/C797S mutant assessed as accumulation of cells at G0/G1 phase at low dose incubated for 24 hrs by PI staining based flow cytometric analysis; type: functional
PC-9 [14] = experiment: cells; settings: Homo sapiens, PC-9, 72 h
Description: Cytotoxicity against human PC-9 cells expressing EGFR Del19/T790M/C797S mutant assessed as inhibition of cell proliferation incubated for 72 hrs by CCK8 assay

PC-9 [15] = experiment: Induction of apoptosis in human PC-9 cells expressing EGFR Del19/T790M/C797S mutant assessed as late apoptotic cells at 0.1 uM incubated for 48 hrs by Annexin V-FITC/PI staining based flow cytometric analysis (reference value: 0.040 %); type: functional
[16] = Metabolic stability in dog liver microsomes assessed as intrinsic clearance at 10 uM preincubated for 5 mins followed by NADPH addition and measured upto 60 mins by HPLC analysis; type: ADME, Canis lupus familiaris, Microsome; settings: time < 65 min, read-out: CLH
PC-9 [17] = experiment: Induction of apoptosis in human PC-9 cells expressing EGFR Del19/T790M/C797S mutant assessed as early apoptotic cells at 0.5 uM incubated for 48 hrs by Annexin V-FITC/PI staining based flow cytometric analysis (reference value: 0.050 %); type: functional
NCI-H1975 = experiment: cells; settings: Homo sapiens, NCI-H1975, 72 h
Description: Cytotoxicity against human NCI-H1975 cells expressing EGFR L858R/T790M mutant assessed as inhibition of cell proliferation incubated for 72 hrs by CCK8 assay

PC-9 [18] = experiment: Induction of apoptosis in human PC-9 cells expressing EGFR L858R/T790M/C797S mutant assessed as viable cells at 0.1 uM incubated for 48 hrs by Annexin V-FITC/PI staining based flow cytometric analysis (reference value: 98.9 %); type: functional; settings: read-out: Activity
[19] = Metabolic stability in Sprague-Dawley rat liver microsomes assessed as half-life at 10 uM preincubated for 5 mins followed by NADPH addition and measured upto 60 mins by HPLC analysis; type: ADME, Microsome; settings: time < 65 min
PC-9 [20] = experiment: Induction of apoptosis in human PC-9 cells expressing EGFR Del19/T790M/C797S mutant assessed as early apoptotic cells at 0.1 uM incubated for 48 hrs by Annexin V-FITC/PI staining based flow cytometric analysis (reference value: 0.050 %); type: functional
PC-9 [21] = experiment: Antitumor activity against human PC-9 cells expressing EGFR L858R/T790M/C797S mutant xenografted in BALB/c nude mouse assessed as tumor growth inhibition at 40 mg/kg, po administered for 18 days relative to control; type: functional; settings: Mus musculus, PC-9, 432 h, time 18 day, read-out: TGI
A-431 = experiment: cells; settings: Homo sapiens, A-431, 72 h
Description: Cytotoxicity against human A-431 cells assessed as inhibition of cell proliferation incubated for 72 hrs by CCK8 assay

PC-9 [22] = experiment: Antitumor activity against human PC-9 cells expressing EGFR L858R/T790M/C797S mutant xenografted in BALB/c nude mouse assessed as reduction in tumor volume at 10 to 40 mg/kg, po administered for 18 days; type: functional, organism-based; settings: dose 10-40 mg/kg, time 18.0 day
[23] = Metabolic stability in mouse liver microsomes assessed as intrinsic clearance at 10 uM preincubated for 5 mins followed by NADPH addition and measured upto 60 mins by HPLC analysis; type: ADME, Microsome; settings: time < 65 min, read-out: CLH
PC-9 [24] = experiment: Induction of apoptosis in human PC-9 cells expressing EGFR L858R/T790M/C797S mutant assessed as viable cells at 1 uM incubated for 48 hrs by Annexin V-FITC/PI staining based flow cytometric analysis (reference value: 98.9 %); type: functional; settings: Homo sapiens, PC-9, read-out: Activity

C=CC(=O)Nc1cc(Nc2ncc(F)c(-c3ccc4cc(C(=O)NC)n(C(C)C)c4c3)n2)ccc1N1CCN(C)CC1 gave a half-life at 10 µM [1] of 1.38 h, a microsomal CLint at 10 µM [2] of 20 µL/min/mg and a half-life at 10 µM [3] of 4.28 h. For the same compound, the inhibition in vivo at 20 mg/kg (PC-9 [4]) was 58.4%, the Activity (PC-9 [5]) was “Active” and the Activity (PC-9 [6]) was 0.31 g. For the same compound, the Activity (PC-9 [7]) was “Active”, the viability at 0.5 µM (PC-9 [8]) was 82.8% and the Activity (PC-9 [9]) was “Active”. It also gave an Activity (PC-9 [10]) of 5.84%, a viability at 0.5 µM (PC-9 [11]) of 61.2% and an Activity (PC-9 [12]) of 7.25%. For the same compound, the Activity (PC-9 [13]) was “Active”, the pIC50 (PC-9 [14]) was 6.70 and the Activity (PC-9 [15]) was 7.34%. For the same compound, the microsomal CLint at 10 µM [16] was 18 µL/min/mg, the Activity (PC-9 [17]) was 11.8% and the pIC50 (NCI-H1975) was 6.97. For the same compound, the viability at 0.1 µM (PC-9 [18]) was 84.9%, the half-life at 10 µM [19] was 1.48 h and the Activity (PC-9 [20]) was 3.32%. The inhibition in vivo at 40 mg/kg (PC-9 [21]) was 70.6%, the pIC50 (A-431) was 5.97 and the Activity (PC-9 [22]) was “Active”. It also gave a microsomal CLint at 10 µM [23] of 56 µL/min/mg and a viability at 1 µM (PC-9 [24]) of 58.8%.
